Data: PMC10948610, “Profiling of Petroselinum sativum (mill.) fuss phytoconstituents and assessment of their biocompatibility, antioxidant, anti-aging, wound healing, and antibacterial activities” (Frontiers in Nutrition, 2024)

Legend:
Assay in all cases: in vitro enzyme inhibition, optical density read-out
Format in all cases: biochemical
Settings in all cases: positive control; substrate, pH and temperature not given
Collagenase = target: T1, Collagenase
T1 construct: gene colG; usual assay enzyme is native clostridial collagenase, human MMP1 possible
Description: in vitro enzyme inhibition, optical density read-out on Collagenase

Hyaluronidase = target: T2, Hyaluronidase
T2 construct: gene SPAM1; usual assay enzyme is native bovine testicular hyaluronidase
Description: in vitro enzyme inhibition, optical density read-out on Hyaluronidase

Elastase = target: T3, Elastase
T3 construct: gene CELA1; usual assay enzyme is native porcine pancreatic elastase, human neutrophil elastase possible
Description: in vitro enzyme inhibition, optical density read-out on Elastase

SMILES | Collagenase / IC50 (Collagenase) [µg/mL] | Hyaluronidase / IC50 (Hyaluronidase) [µg/mL] | Elastase / IC50 (Elastase) [µg/mL]
O=c1c(O)c(-c2ccc(O)c(O)c2)oc2cc(O)cc(O)c12 [Quercetin] | 24.83 ± 1.8 |  | 
O=c1cc(CO)occ1O [Kojic acid] |  | 14.46 ± 0.6 | 21.60 ± 0.9
